Values after ≈ are worked out from the molar mass of the structure shown. Like-named read-outs stand apart in the source and are kept apart here.
Tested on: blood tripomastigote forms of different lines of Trypanosoma cruzi
Test: Tripanocidal activity: percentual of lysis of blood tripomastigote forms in infected mouse blood
Type: cell-based
Conditions: for killing at 25 µg/mL / IC50 / killing at 50 µg/mL: Trypanosoma cruzi; for killing at 25 µg/mL: read-out: % lysis; for anti-Chagas activity: statement in words
Method: Evaluation of the tripanocidal activity was made by checking percentual of lysis from blood tripomastigote forms of different lines of Trypanosoma cruzi, isolated from […] of mice on the parasitemic peak. Biological essays have been made on 200 μl titration microplaques containing about […] forms of the parasite in each milliliter of used blood. Substance concentrations as used for evaluation were of 10, 25 and 50 μg/ml, which were solubilized under PBS buffer containing 5% dimethyl sulfoxide. After adding substances, infected blood has been incubated at 4° C. under constant shaking for a 24-hour period. After that period, the quantity of parasites surviving to the action of substances was counted in an optical microscope and in comparison to the negative control group (infected blood, adding the solution used to solubilized substances), calculations concerning the determination of lysis percentual have been made. As a positive control, gentian violet has been used under concentration of 250 μg/ml, as indicated for chemoprophylaxis. All essays have been made in triplicate.
The biological activity protocol as described above is already fully published and used in the scientific field, being therefore standardized regarding tripanocidal activity (chemoprophylaxis and susceptibility evaluation for the parasite).
Various scientific works using this method, which is even presented in the original evaluation work for the biological activity of cubebin, as published by Bastos and contributors in 1999.

[1] = 50 μg/ml, infected blood, 4° C., 24 h
[2] = 25 μg/ml, infected blood, 4° C., 24 h
[3] = lysis of blood tripomastigotes, 24 h at 4° C., read-out: IC50

| SMILES | % lysis [1] | killing at 25 µg/mL [2] [%] | IC50 [3] [µg/mL] | anti-Chagas activity | killing at 25 µg/mL (24 h) [%] | killing at 50 µg/mL [1] [%] | % lysis (250 μg/ml (positive control), infected blood, 4° C., 24 h) | IC50 (24 h) [µg/mL] |
| --- | --- | --- | --- | --- | --- | --- | --- | --- |
| CN(C)CCOC1OC[C@H](Cc2ccc3c(c2)OCO3)[C@H]1Cc1ccc2c(c1)OCO2 (single isomer, unassigned; (-)) [O-dimethylethylamine cubebin, (−)-O-dimethylethylamine-cubebin] | 50/100% | 90.1 | 3 (≈ 7.02 µM) | bear anti-Chagas activity |  |  |  |  |
| O=C1OC[C@H](Cc2cc3c(cc2[N+](=O)[O-])OCO3)[C@H]1Cc1cc2c(cc1[N+](=O)[O-])OCO2 [6,6′-Dinitrohinokinin, 6, 6′-Dinitrohinokinin] |  |  | 37.1 (≈ 83.5 µM) | bear anti-Chagas activity | 57.6 | 82.8 |  |  |
| OC1OC[C@H](Cc2ccc3c(c2)OCO3)[C@H]1Cc1ccc2c(c1)OCO2 (stereo partly drawn) [Cubebin, cubebin] |  | 7.3 | 97.6 (≈ 274 µM) | bear anti-Chagas activity |  | 52.3 |  |  |
| CN(C)c1ccc(C(=C2C=CC(=[N+](C)C)C=C2)c2ccc(N(C)C)cc2)cc1 [Gentian violet, gentian violet, reference compound] |  |  | 76 |  |  |  | 250/100% |  |
| O=C1OC[C@H](Cc2ccc3c(c2)OCO3)[C@H]1Cc1ccc2c(c1)OCO2 [Hinokinin] |  | 80.1 | 0.9 (≈ 2.54 µM) | bear anti-Chagas activity |  | 95.4 |  |  |
| COc1ccc(C[C@H]2C(=O)OC[C@@H]2Cc2ccc3c(c2)OCO3)cc1OC [Metilpluviatolide, methylpluviatolide] | 50/100% |  |  | bear anti-Chagas activity | 99 |  |  | 1.3 (≈ 3.51 µM) |
| CC(=O)OC1OC[C@H](Cc2ccc3c(c2)OCO3)[C@H]1Cc1ccc2c(c1)OCO2 (stereo partly drawn) [O-acetyl cubebin, O-acetyl Cubebin] | 50/100% | 76.2 | 16.9 (≈ 42.4 µM) | bear anti-Chagas activity |  |  |  |  |
| COC1OC[C@H](Cc2ccc3c(c2)OCO3)[C@H]1Cc1ccc2c(c1)OCO2 (stereo partly drawn) [O-methyl cubebin, O-methyl Cubebin] |  | 13.9 | 86.3 (≈ 233 µM) | bear anti-Chagas activity |  | 62 |  |  |
